Data on 7 molecules can be found in patent publication US5187157A, “Peptide boronic acid inhibitors of trypsin-like proteases” (Du Pont Merck Pharmaceutical Company, priority 1988, dated 1993).

For one assay, the target named is T1, Human thrombin (Homo sapiens, UniProt P00734).
T1 construct: purchased R.Q.P. Laboratories, South Bend, IN Lot HT102
Nature of the assay: Inhibition of Thrombin (Esterase Activity). The following applies: for Percent Activity: activity remaining 10 to 20 min after initiation. Type of assay: biochemical. The procedure:
(§1) In the Examples which follow, the hydrolytic activity of each enzyme is measured in both the presence and absence of inhibitor and the percent enzyme activity determined. […] A steady state is reached fairly rapidly and nears completion within 5 min. Activity is evaluated between 10-20 min after the components are mixed to insure that reaction components are at equilibrium. The lowest concentration of inhibitor tested is determined by the estimated concentration of enzyme. […] The maintenance of pseudo-first-order reaction conditions and the sensitivity of the respective assays sets the lowest limit level of inhibitor tested at 10 nM for kallikrein inhibitors and 5 nM for thrombin inhibitors.
A stock solution of thrombin was prepared in 0.010M PIPES Buffer, pH 6.0, containing 0.75 M sodium chloride. […] The initial concentration of substrate was 0.10 mM and the concentration of thrombin was 1.0 nM (based on weight).

In a further assay the target is T2, Human plasma kallikrein (Homo sapiens, UniProt P03952).
T2 construct: purchased Protogen AG (Switzerland)
T2 sequence (P03952 391-638 limits assumed): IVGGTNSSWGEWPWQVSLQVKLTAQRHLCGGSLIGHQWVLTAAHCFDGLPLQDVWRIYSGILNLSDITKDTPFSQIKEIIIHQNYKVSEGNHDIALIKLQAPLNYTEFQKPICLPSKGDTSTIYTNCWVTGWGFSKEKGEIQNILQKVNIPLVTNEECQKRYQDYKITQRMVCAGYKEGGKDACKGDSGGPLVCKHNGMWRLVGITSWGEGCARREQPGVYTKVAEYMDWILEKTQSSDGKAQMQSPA
T2 sequence (P03952 20-390 partner limits assumed): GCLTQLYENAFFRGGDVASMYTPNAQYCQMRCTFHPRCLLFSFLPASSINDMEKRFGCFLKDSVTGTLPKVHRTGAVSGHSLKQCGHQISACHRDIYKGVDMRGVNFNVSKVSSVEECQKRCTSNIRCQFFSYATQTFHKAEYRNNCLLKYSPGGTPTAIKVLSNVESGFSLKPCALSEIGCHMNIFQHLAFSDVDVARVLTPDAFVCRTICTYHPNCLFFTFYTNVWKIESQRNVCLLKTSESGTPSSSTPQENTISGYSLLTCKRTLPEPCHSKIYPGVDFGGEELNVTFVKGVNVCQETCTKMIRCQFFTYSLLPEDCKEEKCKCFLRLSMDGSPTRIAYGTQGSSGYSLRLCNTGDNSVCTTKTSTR
The assay is described as follows: Inhibition of Human Plasma Kallikrein. The class given is biochemical. The following applies: for Percent Activity: activity remaining 10 to 20 min after initiation. The method, then: as §1
Human plasma kallikrein was obtained from Protogen AG (Switzerland). The specific activity as described by the supplier is 15 units per mg. A unit is defined as the quantity of enzyme required to hydrolyze 1 μmole of substrate, H-(D)Pro-Phe-Arg-p-nitroanilide (Kabi S2302), per min at a substrate concentration of 0.50 mM at 25° in 50 mM potassium phosphate buffer, pH 8.0.

A further assay concerns Sprague Dawley CD Rats. Nature of the assay: In Vivo Inhibition of Croton Oil Induced Inflammation (ear swelling). The following applies: 100 μg/ear with 5% croton oil, topical, 1 h.

Each structure is given as a SMILES string. Residues, ends and D or L forms follow the SMILES beside them. *: point of attachment. X1 = CC1(C)C2CC3OB(C(CCCNC(=N)N)N*)OC3(C)C1C2; Boc = CC(C)(C)OC(=O)*

Procedure for Sprague Dawley CD Rats: Two solutions were prepared, the first consisting of 5% croton oil, a known inflammatory agent, in an acetone carrier (Croton Solution) and the second consisting of 5% croton oil in an acetone carrier to which 10 mg/mL of a compound of the invention was added (Compound Solution). The Croton Solution (10 μL), or alternatively the Compound Solution (10 μL), was applied to the right ear of each animal (Sprague Dawley CD Rats, 130-140 g, supplied by Charles River Labs, Inc., Wilmington, MA). […] "SE" denotes standard error.

`Br.CC(=O)NC(C)C(=O)NC(CCCCNC(=O)OC(C)(C)C)C(=O)NC(CCCSC(=N)N)B1OC2CC3CC(C3(C)C)C2(C)O1` (stereo not drawn) [Ac--Ala--Lys(Boc)--boroIrg--C10 H16.HBr, Ac-Ala-Lys(Boc)-boroIrg-C10 H16.HBr]: the “Percent Activity” value at Human thrombin (inhibitor 100 nM) was found to be 55%; at Human plasma kallikrein (inhibitor 50 nM) it was 1.4%.
Turning to `Cl.NC(N)=NCCC[C@H](NC(=O)[C@H](Cc1ccccc1)NC(=O)[C@@H]1CCCN1C(=O)c1ccccc1)B(O)O` [Bz--Pro--Phe--boroArg--OH.HCl, Bz-Pro-Phe-boroArg-OH.HCl], the “Percent Activity” value on Human thrombin (inhibitor 1000 nM) is recorded as 18%; on Human plasma kallikrein (inhibitor 10 nM) it was 16%.
Consider `CC1(C)C2CC3OB(C(CCCNC(=N)N)NC(=O)C(Cc4ccccc4)NC(=O)C(N)Cc4ccccc4)OC3(C)C1C2.Cl.Cl` (stereo not drawn) [H--(D)Phe--Phe--boroArg--C10 H16.2HCl, H-(D)Phe-Phe-boroArg-C10 H16.2HCl], for which, at Human thrombin (inhibitor 10 nM), the “Percent Activity” value amounted to 10%. For the same molecule, on Human plasma kallikrein (inhibitor 10 nM), the inhibits kallikrein result was “greater than 95%” and the “Percent Activity” value amounted to 2.6%.
As for `CC(=O)NC(Cc1ccccc1)C(=O)N1CCCC1C(=O)NC(CCCNC(=N)N)B1OC2CC3CC(C3(C)C)C2(C)O1.Cl` (stereo not drawn) [Ac--(D)Phe--Pro--boroArg--C10 H16.HCl, Ac-(D)Phe-Pro-boroArg-C10 H16.HCl], the “Ki (suggested by inhibitor concentration and percent inhibition)” value at Human thrombin (estimate from percent inhibition) is on record as “in the picomolar range”. On Human thrombin (inhibitor 5 nM), the inhibits thrombin came to 99% and the “Percent Activity” value came out at 1%. For the same molecule, the “Percent Activity” value on Human plasma kallikrein (inhibitor 10 nM) is recorded as 56%.
Consider `COc1ccc2c(c1)c(CC(=O)O)c(C)n2C(=O)c1ccc(Cl)cc1` [Indomethacin, indomethacin, reference compound], for which, in the assay on Sprague Dawley CD Rats, the “Mean Right ear Wt.” value came out at 20.6 mg. Moreover, the “Mean Swelling (mg ± SE)” value with Sprague Dawley CD Rats (right minus left ear weight) came out at 5.0 ± 2.8 mg. Besides, in the assay with Sprague Dawley CD Rats (Table 13), the “Percent Inhibition” value was 55%.
As to `CC1(C)C2CC3OB(C(CCCNC(=N)N)NC(=O)C(Cc4ccccc4)NC(=O)C4CCCN4C(=O)c4ccccc4)OC3(C)C1C2.O=S(=O)(O)c1ccccc1` (stereo not drawn) [Bz--Pro--Phe--boroArg--C10 H16.BSA, Bz-Pro-Phe-boroArg-C10 H16.benzene sulfonic acid], the figures for the “Percent Activity” value on Human thrombin (inhibitor 1000 nM) and at Human plasma kallikrein (inhibitor 10 nM) were 24% and 15%, respectively.
In the case of `CC(C)CC(NC(=O)CNC(=O)C(CC(C)C)NC(=O)OC(C)(C)C)C(=O)NC(C)C(=O)NC(CCCNC(=N)N)B1OC2CC3CC(C3(C)C)C2(C)O1.O=S(=O)(O)c1ccccc1` (stereo not drawn) [Boc-Leu-Gly-Leu-Ala-boroArg-C10 H16.benzene sulfonic acid] (Boc-LGLA-X1; configuration not given here), the results for the “Percent Activity” value on Human thrombin (inhibitor 10 nM) and on Human plasma kallikrein (inhibitor 10 nM) were 38% and 30%, respectively.
